Results: patent US20230210853A1 (Halia Therapeutics, Inc., priority 2020, published 2023)
Read-outs that look alike come from different tables or passages of the source. Values belong to the compound of their own block, whether it stands above or below them.

Tests used:
IL-1β release = IL-1β release assay (PMA-differentiated THP-1 cells, LPS + nigericin, cleaved IL-1β by JESS); format: cell-based; conditions: Homo sapiens, THP-1 cells, LPS + nigericin
Method: (§1) Approximately 1.5 million THP-1 cells were plated in each well of a 6-well TC plate and incubated with 40 nM PMA in RPMI (10% FBS, 1% Penstrep) for 24 hours. The media was then removed and cells were rested in RPMI (10% FBS, 1% Penstrep) for 24 hours after which time the media was removed and cells were pre-treated for 2 hours with various concentrations of compounds of interest (typically serial 3-fold dilution in RPMI +5% FBS, concentrations ranging from 1 μM to 0.5 nM) in RPMI (5% FBS). The media was again removed and cells were incubated with 250 ng/mL LPS and compounds of interest (concentrations as above) in RMPI (5% FBS) for 2 hours. The media was removed for a last time and cells were incubated with 20 μM nigericin and compounds of interest (concentrations as above) in Opti-MEM for 30 minutes. Cell media was then collected and the amount of cleaved IL-1β was determined using a JESS instrument (Protein Simple) and standard protocols. Cleaved 1-PD antibody was obtained from Cell Signaling (catalogue #83186S) and was used at 1:20 dilution in antibody diluent 2. Protein Simple 1× anti-Rabbit HRP secondary antibody was used along with Protein Simple luminol and peroxide for chemiluminescent detection. Primary antibody incubation time was increased from 30 minutes to 60 minutes.
as §1, with “RPMI+5%” for “RPMI +5%”, “Il-1β” for “1-PD”

[1] = target: T1, full-length recombinant human NEK7 (Homo sapiens, UniProt Q8TDX7); test: NEK7 enzymatic assay ([33P]-ATP, casein substrate); format: biochemical; conditions: recombinant human NEK7, casein substrate
T1 construct: full-length recombinant human NEK7; GST (N); purchased SignalChem N09-10G; host or cells: Sf9 insect cells (baculovirus)
Procedure, shortened: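 GST-tagged enzyme, baculovirus-expressed in Sf9 cells, was mixed with casein in 20 mM Hepes pH 7.5, 10 mM MgCl2, 1 mM EGTA, 0.02% Brij35, 2 mM DTT, 1% DMSO. Compounds (3-fold series, 10 μM–0.5 nM) were preincubated 20 min at RT, then [33P]-ATP was added for 2 h at RT. P81 filter-bound radioactivity was expressed as % of vehicle activity and fitted to IC50.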

[2] = Table 2a, read-out: II-1β release IC50
[3] = Table 2b, read-out: Il-1β release IC50
[4] = 48 h, Table 2d, read-out: IL-1β release IC50
[5] = Table 2e, read-out: IL-1β release IC50

T1 sequence (Q8TDX7 whole entry): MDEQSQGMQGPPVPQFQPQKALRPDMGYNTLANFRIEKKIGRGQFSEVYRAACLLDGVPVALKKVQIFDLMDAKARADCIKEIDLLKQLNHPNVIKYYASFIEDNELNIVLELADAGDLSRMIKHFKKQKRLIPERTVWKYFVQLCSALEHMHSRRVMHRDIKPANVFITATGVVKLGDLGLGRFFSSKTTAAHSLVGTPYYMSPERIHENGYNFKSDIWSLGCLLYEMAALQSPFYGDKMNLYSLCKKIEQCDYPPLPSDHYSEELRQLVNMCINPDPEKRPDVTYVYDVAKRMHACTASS

IC50 (IL-1β release; [2]): < 0.15 µM | IC50 ([1]; Table 2a): < 0.15 µM
Structure (SMILES): Nc1ncnc2c1c(-c1ccc(NC(=O)Nc3cc(C4(C(F)(F)F)CC4)on3)c(F)c1)nn2C1CC1 [Ia-25, 1-(4-(4-amino-1-cyclopropyl-1H-pyrazolo[3,4-d]pyrimidin-3-yl)-2-fluorophenyl)-3-(5-(1-(trifluoromethyl)cyclopropyl)isoxazol-3-yl)urea]

IC50 (IL-1β release; [2]): < 0.15 µM | IC50 ([1]; Table 2a): < 0.15 µM
Structure (SMILES): CC(C)(C)c1cc(NC(=O)Nc2ccc(-c3nn(C4CC4)c4ccnc(N)c34)cc2F)on1 [Ia-30, 1-(4-(4-amino-1-cyclopropyl-1H-pyrazolo[4,3-c]pyridin-3-yl)-2-fluorophenyl)-3-(3-(tert-butyl)isoxazol-5-yl)urea]

IC50 (IL-1β release; [2]): 0.151 to 0.3 µM | IC50 ([1]; Table 2a): < 0.15 µM
Structure (SMILES): CC1(c2cc(NC(=O)Nc3ccc(-c4nn(C5CC5)c5ncnc(N)c45)cc3F)on2)CC1 [Ia-32, 1-(4-(4-amino-1-cyclopropyl-1H-pyrazolo[3,4-d]pyrimidin-3-yl)-2-fluorophenyl)-3-(3-(1-methylcyclopropyl)isoxazol-5-yl)urea]

IC50 (IL-1β release; [2]): 0.301 to 0.5 µM | IC50 ([1]; Table 2a): 0.501 to 1.5 µM
Structure (SMILES): CC(C)(C)c1nnc(NC(=O)Nc2ccc(-c3nn(C4CC4)c4ncnc(N)c34)cc2F)s1 [Ia-33, 1-(4-(4-amino-1-cyclopropyl-1H-pyrazolo[3,4-d]pyrimidin-3-yl)-2-fluoropbenyl)-3-(5-(tert-butyl)-1,3,4-thiadiazol-2-yl)urea]

IC50 (IL-1β release; [2]): 0.151 to 0.3 µM | IC50 ([1]; Table 2a): 0.151 to 0.3 µM
Structure (SMILES): Nc1nccc2c1c(-c1ccc(NC(=O)Nc3cc(C4(C(F)(F)F)CC4)no3)c(F)c1)nn2C1CC1 [Ia-45, 1-(4-(4-amino-1-cyclopropyl-1H-pyrazolo[4,3-c]pyridin-3-yl)-2-fluorophenyl)-3-(3-(1-(trifluoromethyl)cyclopropyl)isoxazol-5-yl)urea]

IC50 (IL-1β release; [3]): < 0.15 µM | IC50 ([1]; Table 2b): 0.501 to 1.5 µM
Structure (SMILES): Cc1c[nH]c2nccc(Oc3ccc(NC(=O)Nc4cc(C(C)(C)C)nn4-c4ccccc4)c(F)c3)c12 [Ib-4, 1-(3-(tert-butyl)-1-phenyl-1H-pyrazol-5-yl)-3-(2-fluoro-4-((3-methyl-1H-pyrrolo[2,3-b]pyridin-4-yl)oxy)phenyl)urea]

IC50 (IL-1β release; [3]): 0.151 to 0.3 µM | IC50 ([1]; Table 2b): > 1.5 µM
Structure (SMILES): Cc1cc2c(Oc3ccc(NC(=O)Nc4cc(C(C)(C)C)nn4-c4ccccc4)c(F)c3)ccnc2[nH]1 [Ib-5, 1-(3-(tert-butyl)-1-phenyl-1H-pyrazol-5-yl)-3-(2-fluoro-4-((2-methyl-1H-pyrrolo[2,3-b]pyridin-4-yl)oxy)phenyl)urea]

IC50 (IL-1β release; [3]): 0.301 to 0.5 µM | IC50 ([1]; Table 2b): > 1.5 µM
Structure (SMILES): CC(C)(C)c1cc(NC(=O)Nc2c(F)cc(Oc3ccnc4[nH]cc(Cl)c34)cc2F)n(-c2ccccc2)n1 [Ib-8]

IC50 (IL-1β release; [3]): < 0.15 µM | IC50 ([1]; Table 2b): 0.501 to 1.5 µM
Structure (SMILES): CC(C)(C)c1cc(NC(=O)Nc2ccc(Oc3ccnc4[nH]cc(Cl)c34)c(F)c2)n(-c2ccccc2)n1 [Ib-12, 1-(3-(tert-butyl)-1-phenyl-1H-pyrazol-5-yl)-3-(4-((3-chloro-1H-pyrrolo[2,3-b]pyridin-4-yl)oxy)-3-fluorophenyl)urea]

IC50 (IL-1β release; [3]): > 1 µM | IC50 ([1]; Table 2b): 0.501 to 1.5 µM
Structure (SMILES): Cc1[nH]c2nccc(Oc3ccc(NC(=O)Nc4cc(C(C)(C)C)nn4-c4ccccc4)c(F)c3)c2c1Cl [Ib-14]

IC50 (IL-1β release; [3]): < 0.15 µM | IC50 ([1]; Table 2b): 0.501 to 1.5 µM
Structure (SMILES): CC(C)(C)c1cc(NC(=O)Nc2ccc(Oc3ccnc4[nH]cc(C5CC5)c34)cc2F)n(-c2ccccc2)n1 [Ib-18, 1-(3-(tert-butyl)-1-phenyl-1H-pyrazol-5-yl)-3-(4-((3-cyclopropyl-1H-pyrrolo[2,3-b]pyridin-4-yl)oxy)-2-fluorophenyl)urea]

IC50 (IL-1β release; [4]): < 0.15 µM | IC50 ([1]; Table 2d): < 0.15 µM
Structure (SMILES): CN1CCN(Cc2ccc(NC(=O)Nc3ccc(-c4nn(C5CC5)c5ncnc(N)c45)cc3F)cc2F)CC1 [Id-27, 1-(4-(4-amino-1-cyclopropyl-1H-pyrazolo[3,4-d]pyrimidin-3-yl)-2-fluorophenyl)-3-(3-fluoro-4-((4-methylpiperazin-1-yl)methyl)phenyl)urea]

IC50 (IL-1β release; [4]): < 0.15 µM | IC50 ([1]; Table 2d): < 0.15 µM
Structure (SMILES): CN1CCN(Cc2ccc(NC(=O)Nc3ccc(-c4nn(CC(C)(C)O)c5ncnc(N)c45)cc3F)cc2C(F)(F)F)CC1 [Id-28, 1-(4-(4-amino-1-(2-hydroxy-2-methylpropyl)-1H-pyrazolo[3,4-d]pyrimidin-3-yl)-2-fluorophenyl)-3-(4-((4-methylpiperazin-1-yl)methyl)-3-(trifluoromethyl)phenyl)urea]

IC50 (IL-1β release; [4]): < 0.15 µM | IC50 ([1]; Table 2d): < 0.15 µM
Structure (SMILES): CN1CCN(Cc2ccc(NC(=O)Nc3ccc(-c4nn(C5CC5)c5ccnc(N)c45)cc3F)cc2C(F)(F)F)CC1 [Id-30, 1-(4-(4-amino-1-cyclopropyl-1H-pyrazolo[4,3-c]pyridin-3-yl)-2-fluorophenyl)-3-(4-((4-methylpiperazin-1-yl)methyl)-3-(trifluoromethyl)phenyl)urea]

IC50 (IL-1β release; [4]): 0.301 to 0.5 µM | IC50 ([1]; Table 2d): 0.501 to 1.5 µM
Structure (SMILES): Nc1ncnc2c1c(-c1ccc(NC(=O)Nc3ccc(CN4CCOCC4)c(C(F)(F)F)c3)c(F)c1)cn2C1CC1 [Id-31, 1-(4-(4-amino-7-cyclopropyl-7H-pyrrolo[2,3-d]pyrimidin-5-yl)-2-fluorophenyl)-3-(4-(morpholinomethyl)-3-(trifluoromethyl)phenyl)urea]

IC50 (IL-1β release; [4]): < 0.15 µM | IC50 ([1]; Table 2d): < 0.15 µM
Structure (SMILES): CN1CCN(Cc2ccc(NC(=O)Nc3ccc(-c4cn(C5CC5)c5ncnc(N)c45)cc3F)cc2C(F)(F)F)CC1 [Id-33, 1-(4-(4-amino-7-cyclopropyl-7H-pyrrolo[2,3-d]pyrimidin-5-yl)-2-fluorophenyl)-3-(4-((4-methylpiperazin-1-yl)methyl)-3-(trifluoromethyl)phenyl)urea]

IC50 (IL-1β release; [4]): > 1 µM | IC50 ([1]; Table 2d): 0.151 to 0.3 µM
Structure (SMILES): CN1CCN(C(=O)c2ccc(NC(=O)Nc3ccc(-c4nn(C5CC5)c5ncnc(N)c45)cc3F)cc2C(F)(F)F)CC1 [Id-48]

IC50 (IL-1β release; [4]): < 0.15 µM | IC50 ([1]; Table 2d): < 0.15 µM
Structure (SMILES): CCN1CCN(Cc2ccc(NC(=O)Nc3ccc(-c4nn(C5CC5)c5ncnc(N)c45)cc3F)cc2C(F)(F)F)CC1 [Id-49]

IC50 (IL-1β release; [5]): < 0.15 µM | IC50 ([1]; Table 2e): 0.151 to 0.3 µM
Structure (SMILES): CN1CCN(Cc2ccc(NC(=O)Nc3ccc(Oc4ccnc5[nH]cc(Cl)c45)cc3F)cc2C(F)(F)F)CC1 [Ie-1, 1-(4-((3-chloro-1H-pyrrolo[2,3-b]pyridin-4-yl)oxy)-2-fluorophenyl)-3-(4-((4-methylpiperazin-1-yl)methyl)-3-(trifluoromethyl)phenyl)urea]

IC50 (IL-1β release; [5]): < 0.15 µM | IC50 ([1]; Table 2e): 0.501 to 1.5 µM
Structure (SMILES): CCN1CCN(Cc2ccc(NC(=O)Nc3ccc(Oc4ccnc5[nH]cc(Cl)c45)cc3F)cc2C(F)(F)F)CC1 [Ie-9, 1-(4-((3-chloro-1H-pyrrolo[2,3-b]pyridin-4-yl)oxy)-2-fluorophenyl)-3-(4-((4-ethylpiperazin-1-yl)methyl)-3-(trifluoromethyl)phenyl)urea]

IC50 (IL-1β release; [5]): < 0.15 µM | IC50 ([1]; Table 2e): 0.151 to 0.3 µM
Structure (SMILES): CN1CCC(Oc2ccc(NC(=O)Nc3ccc(Oc4ccnc5[nH]cc(Cl)c45)cc3F)cc2C(F)(F)F)CC1 [Ie-16, 1-(4-((3-chloro-1H-pyrrolo[2,3-b]pyridin-4-yl)oxy)-2-fluorophenyl)-3-(4-((1-methylpiperidin-4-yl)oxy)-3-(trifluoromethyl)phenyl)urea]

IC50 (IL-1β release; [5]): < 0.15 µM | IC50 ([1]; Table 2e): 0.301 to 0.5 µM
Structure (SMILES): CN1CCC(=Cc2ccc(NC(=O)Nc3ccc(Oc4ccnc5[nH]cc(Cl)c45)cc3F)cc2C(F)(F)F)CC1 [Ie-20, 1-(4-((3-chloro-1-pyrrolo[2,3-b]pyridin-4-yl)oxy)-2-fluorophenyl)-3-(4-((1-methylpiperidin-4-ylidene)methyl)-3-(trifluoromethyl)phenyl)urea]

IC50 (IL-1β release; [5]): < 0.15 µM | IC50 ([1]; Table 2e): 0.501 to 1.5 µM
Structure (SMILES): CN1CCN(Cc2ccc(NC(=O)Nc3ccc(Oc4ccnc5[nH]cc(C6CC6)c45)cc3F)cc2C(F)(F)F)CC1 [Ie-26, 1-(4-((3-cyclopropyl-1H-pyrrolo[2,3-b]pyridin-4-yl)oxy)-2-fluorophenyl)-3-(4-((4-methylpiperazin-1-yl)methyl)-3-(trifluoromethyl)phenyl)urea]
